Results on 13 compounds are retold here after patent US8816129B2, “PTP1B inhibitors, synthesis thereof and application thereof in preparation of medicaments for treating type 2 diabetes mellitus” (Institute of Oceanology, Chinese Academy of Sciences, priority 2010, dated 2014).

Assay [1] has as its target T1, human recombinant PTP1B (hGST-PTP1B) (Homo sapiens, UniProt P18031).
T1 construct: made in house; host or cells: E. coli BL21
T1 sequence (P18031 1-435): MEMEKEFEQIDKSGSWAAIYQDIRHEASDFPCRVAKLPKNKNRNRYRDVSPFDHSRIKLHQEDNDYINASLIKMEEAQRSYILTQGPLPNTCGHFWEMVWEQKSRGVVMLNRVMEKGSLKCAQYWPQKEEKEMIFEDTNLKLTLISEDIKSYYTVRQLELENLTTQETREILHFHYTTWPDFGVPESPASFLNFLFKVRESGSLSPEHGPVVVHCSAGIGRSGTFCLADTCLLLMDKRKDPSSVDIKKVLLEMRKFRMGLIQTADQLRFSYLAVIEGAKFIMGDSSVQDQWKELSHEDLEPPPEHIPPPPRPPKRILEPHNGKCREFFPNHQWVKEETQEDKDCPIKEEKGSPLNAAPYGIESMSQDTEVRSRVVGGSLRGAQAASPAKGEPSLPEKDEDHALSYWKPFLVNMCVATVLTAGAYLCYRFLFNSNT
Kind of assay: PTP1B inhibitory assay (pNPP hydrolysis, absorbance at 405 nm). Format: biochemical. The conditions noted are these: 2 mM pNPP, 30 nM hGST-PTP1B, pH 6.5, 30° C.; for inhibition at 5 µg/mL: 5 μg/mL compound; for inhibition at 20 µg/mL: 20 μg/mL compound. On the procedure:
Construct human recombinant PTP1B engineering bacteria hGST-PTP1B-BL21 via molecular biology methods, and purify it through GST-tagged affinity chromatography. The principle is that the product pNP, which is enzymolysis of pNPP by PTP1B, absorbs at 405 nm. The activity of PTP1B inhibition can be measured by calculating the quantity of pNP.
Compounds 1-12 were dissolved in DMSO. 2 μL of samples were placed into the system (50 mM Tris-HCl, pH 6.5, 2 mM pNPP, 2% DMSO, 30 nM hGST-PTP1B). DMSO was distributed as negative control and Na3VO4 was positive control. The reaction was at 30° C. and monitored at 405 nm for 3 min. Inhibitory rate was calculated according to the following formula: % inhibition=100% ×[(Vsample−VDMSO)/[…]]

Assay [2] deals with T2, PTP1B (Homo sapiens, UniProt P18031).
T2 sequence (P18031 1-435): T1 sequence (P18031 1-435)
The settings on record: background statement; read-out: IC50 (PTP1B inhibitor); cited from earlier work.

SMILES strings stand for the structures. Read-outs that look alike come from different tables or passages of the source.

For the compound `COc1cc(C(=O)c2c(C(Br)Br)cc(OC)c(OC)c2Br)c(Br)c(Br)c1OC` [Compound 1, (2′-bromo-6′-(dibromomethyl)-3′,4′-dimethoxyphenyl)-(2,3-dibromo-4,5-dimethoxyphenyl)-methanone], in assay [1], the inhibition (usually the change of the read-out against control, counted positive when it falls) at 5 µg/mL is 47.9% and the inhibition at 20 µg/mL was found to be 101%. In addition, in assay [1] (read-out: IC50 (converted)), the IC50 – broadly, the midpoint of a concentration-inhibition curve – is 1.84 µM.

For `CCCOCc1cc(O)c(O)c(Br)c1Cc1cc(O)c(O)c(Br)c1Br` [Compound 2, 3,4-dibromo-5-[2′-bromo-3′,4′-dihydroxy-6′-(propoxymethyl)-benzyl]-benzene-1,2-diol], in assay [1], the inhibition at 5 µg/mL was 55.7%, the inhibition at 20 µg/mL turned out to be 86.2% and the IC50 was found to be 1.08 mg/L.

For `CC(C)OCc1cc(O)c(O)c(Br)c1Cc1cc(O)c(O)c(Br)c1Br` [Compound 3, 3,4-dibromo-5-[2′-bromo-3′,4′-dihydroxy-6′-(isopropoxymethyl)-benzyl]-benzene-1,2-diol], in assay [1], the inhibition at 5 µg/mL is 68.2% and the inhibition at 20 µg/mL amounted to 93.9%. The IC50 in assay [1] (read-out: IC50 (converted)) is 0.628 µM.

On to `CCCCOCc1cc(O)c(O)c(Br)c1Cc1cc(O)c(O)c(Br)c1Br` [Compound 4, 3,4-dibromo-5-[2′-bromo-6′-(butoxymethyl)-3′,4′-dihydroxy-benzyl]-benzene-1,2-diol], for which, in assay [1], the inhibition at 5 µg/mL amounted to 27.2% and the inhibition at 20 µg/mL came out at 64.6%.

As to `CC(C)COCc1cc(O)c(O)c(Br)c1Cc1cc(O)c(O)c(Br)c1Br` [Compound 5, 3,4-dibromo-5-[2′-bromo-3′,4′-dihydroxy-6′-(isobutoxymethyl)-benzyl]-benzene-1,2-diol], in assay [1], the inhibition at 5 µg/mL was 48.3%, the inhibition at 20 µg/mL was found to be 96.2% and the IC50 is 0.83 mg/L.

In the case of `CCC(C)OCc1cc(O)c(O)c(Br)c1Cc1cc(O)c(O)c(Br)c1Br` (centres unmarked) [Compound 6, 3,4-dibromo-5-(2-bromo-6-(sec-butoxymethyl)-3,4-dihydroxybenzyl)benzene-1,2-diol], in assay [1], the inhibition at 5 µg/mL was 42.4% and the inhibition at 20 µg/mL was 96.5%. In addition, in assay [1] (read-out: IC50 (converted)), the IC50 is 1.82 µM.

For `COc1cc(Br)c(Cc2cc(OC)c(OC)c(Br)c2Cc2cc(OC)c(OC)c(Br)c2Br)cc1OC` [Compound 7, 2,3-dibromo-1-[2′-bromo-6′-(2″-bromo-4″,5″-dimethoxybenzyl)-3′,4′-dimethoxybenzyl]-4,5-dimethoxybenzene], the inhibition at 20 µg/mL in assay [1] was found to be 101%.

Take `CCCOCc1cc(O)c(O)c(Br)c1Cc1c(Br)c(O)c(O)c(Br)c1Br` [Compound 8, 3,4,6-tribromo-5-(2-bromo-3,4-dihydroxy-6-(propoxymethyl)benzyl)benzene-1,2-diol]: in assay [1], the inhibition at 5 µg/mL is 42.4% and the inhibition at 20 µg/mL is 98.8%. In assay [1] (read-out: IC50 (converted)), the IC50 is 1.63 µM.

For the compound `CC(C)OCc1cc(O)c(O)c(Br)c1Cc1c(Br)c(O)c(O)c(Br)c1Br` [Compound 9, 3,4,6-tribromo-5-(2-bromo-3,4-dihydroxy-6-(isopropoxymethyl)benzyl)benzene-1,2-diol], the inhibition at 20 µg/mL in assay [1] came out at 98.5%.

Consider `CCCCOCc1cc(O)c(O)c(Br)c1Cc1c(Br)c(O)c(O)c(Br)c1Br` [Compound 10, 3,4,6-tribromo-5-(2-bromo-6-(butoxymethyl)-3,4-dihydroxybenzyl)benzene-1,2-diol], for which the inhibition at 20 µg/mL in assay [1] was 99%.

In the case of `CC(C)COCc1cc(O)c(O)c(Br)c1Cc1c(Br)c(O)c(O)c(Br)c1Br` [Compound 11, 3,4,6-tribromo-5-(2-bromo-3,4-dihydroxy-6-(isobutoxymethyl)benzyl)benzene-1,2-diol], the inhibition at 20 µg/mL in assay [1] is 101%.

Turning to `Cc1cc(O)c(O)c(Br)c1Cc1c(Br)c(O)c(O)c(Br)c1Br` [Compound 12, 3,4,6-tribromo-5-(2-bromo-3,4-dihydroxy-6-methylbenzyl)benzene-1,2-diol], in assay [1], the inhibition at 20 µg/mL worked out at 57.7%.

As for `CCc1oc2ccccc2c1C(=O)c1cc(Br)c(O)c(Br)c1` [benzbromarone], the IC50 in assay [2] was 26 µM.
